Laboratory results published in ChEMBL document CHEMBL3885861, “Open TG-GATES”.

Species: Rattus norvegicus
Assay: Open TG-GATES - Regimen: Single
Type: toxicity, organism-based, Sprague-Dawley
Design: regimen Single, gender Male, age 6 weeks
Settings: in vivo, po, 10 mg/kg, route gavage, dose level Low; for KIDNEY_L / KIDNEY_R / KIDNEY_TOTAL: tissue Kidney; for LIVER: tissue Liver; for ALP / ALT / AST / BUN / CRE / DBIL / GLC / IP / K / PL / RALB / TBIL / TC / TG / TP / gamma-GTP: tissue Plasma

Molecule CC(C)OC(=O)C(C)(C)Oc1ccc(C(=O)c2ccc(Cl)cc2)cc1 [FENOFIBRATE] has a Fbg (3 h, tissue Blood) of 280.8 mg/dL, a Ht (3 h, tissue Blood) of 40.3% and an MCHC (3 h, tissue Blood) of 32.3%. It also gave a Mono (3 h, tissue Blood) of 3.6%, an RBC (3 h, tissue Blood) of 603 x10_4/ul and a Ret (3 h, tissue Blood) of 10.2%. It also gave a KIDNEY_L (3 h) of 0.8 g, a KIDNEY_R (3 h) of 0.8 g and a KIDNEY_TOTAL (3 h) of 1.6 g. It also gave an LIVER (3 h) of 7.8 g, an ALP (3 h) of 1472.8 IU/L and an ALT (3 h) of 49.4 IU/L. It also gave an AST (3 h) of 83.6 IU/L, a BUN (3 h) of 9.8 mg/dL and a CRE (3 h) of 0.2 mg/dL. For the same molecule, the DBIL (3 h) was 0.01 mg/dL, the GLC (3 h) was 178.4 mg/dL and the IP (3 h) was 10 mg/dL. The K (3 h) was 4.2 meq/L, the PL (3 h) was 140.8 mg/dL and the RALB (3 h) was 2.4 g/dL. It also gave a TBIL (3 h) of 0.058 mg/dL, a TC (3 h) of 80.4 mg/dL and a TG (3 h) of 43 mg/dL. It also gave a TP (3 h) of 5.2 g/dL, a gamma-GTP (3 h) of 1.4 IU/L and a Bas (6 h, tissue Blood) of 0%. It also gave an Eos (6 h, tissue Blood) of 0.8%, a Fbg (6 h, tissue Blood) of 283 mg/dL and a Ht (6 h, tissue Blood) of 39.7%. It also gave a Lym (6 h, tissue Blood) of 69.4%, an MCHC (6 h, tissue Blood) of 32% and a Mono (6 h, tissue Blood) of 2.6%. The RBC (6 h, tissue Blood) was 572.6 x10_4/ul, the Ret (6 h, tissue Blood) was 11.1% and the KIDNEY_L (6 h) was 0.8 g. It also gave a KIDNEY_R (6 h) of 0.8 g, a KIDNEY_TOTAL (6 h) of 1.6 g and an LIVER (6 h) of 7.8 g. It also gave an ALP (6 h) of 1504.8 IU/L, an ALT (6 h) of 43.4 IU/L and an AST (6 h) of 77.2 IU/L. For the same molecule, the BUN (6 h) was 8.8 mg/dL, the CRE (6 h) was 0.2 mg/dL and the DBIL (6 h) was 0.01 mg/dL. It also gave a GLC (6 h) of 180.2 mg/dL, an IP (6 h) of 10.2 mg/dL and a K (6 h) of 4.2 meq/L. It also gave a PL (6 h) of 128 mg/dL, an RALB (6 h) of 2.5 g/dL and a TBIL (6 h) of 0.056 mg/dL. It also gave a TC (6 h) of 71.6 mg/dL, a TG (6 h) of 36.8 mg/dL and a TP (6 h) of 5.4 g/dL. It also gave a gamma-GTP (6 h) of 1.4 IU/L, a Bas (9 h, tissue Blood) of 0% and an Eos (9 h, tissue Blood) of 1%. For the same molecule, the Fbg (9 h, tissue Blood) was 283 mg/dL, the Ht (9 h, tissue Blood) was 39.6% and the MCHC (9 h, tissue Blood) was 32.4%. For the same molecule, the Mono (9 h, tissue Blood) was 1.4%, the RBC (9 h, tissue Blood) was 608.4 x10_4/ul and the Ret (9 h, tissue Blood) was 9.5%. For the same molecule, the KIDNEY_L (9 h) was 0.8 g, the KIDNEY_R (9 h) was 0.8 g and the KIDNEY_TOTAL (9 h) was 1.6 g. For the same molecule, the LIVER (9 h) was 7 g, the ALP (9 h) was 1360.4 IU/L and the ALT (9 h) was 42.4 IU/L. The AST (9 h) was 77.4 IU/L, the BUN (9 h) was 7.4 mg/dL and the CRE (9 h) was 0.1 mg/dL. It also gave a DBIL (9 h) of 0.01 mg/dL, a GLC (9 h) of 175.2 mg/dL and an IP (9 h) of 9.8 mg/dL. The K (9 h) was 3.9 meq/L, the PL (9 h) was 124 mg/dL and the RALB (9 h) was 2.4 g/dL. The TBIL (9 h) was 0.054 mg/dL, the TC (9 h) was 70.8 mg/dL and the TG (9 h) was 31.2 mg/dL. The TP (9 h) was 5.2 g/dL, the gamma-GTP (9 h) was 0.8 IU/L and the Bas (24 h, tissue Blood) was 0%. For the same molecule, the Eos (24 h, tissue Blood) was 1%, the Fbg (24 h, tissue Blood) was 270 mg/dL and the Ht (24 h, tissue Blood) was 38.6%. It also gave an MCHC (24 h, tissue Blood) of 32.4%, a Mono (24 h, tissue Blood) of 3.8% and an RBC (24 h, tissue Blood) of 590.4 x10_4/ul. The Ret (24 h, tissue Blood) was 8.6%, the KIDNEY_L (24 h) was 0.8 g and the KIDNEY_R (24 h) was 0.8 g. For the same molecule, the KIDNEY_TOTAL (24 h) was 1.6 g, the LIVER (24 h) was 9.2 g and the ALP (24 h) was 1838.8 IU/L. The ALT (24 h) was 49.2 IU/L, the AST (24 h) was 76.8 IU/L and the BUN (24 h) was 14.2 mg/dL. The CRE (24 h) was 0.2 mg/dL, the DBIL (24 h) was 0.012 mg/dL and the GLC (24 h) was 179.6 mg/dL. The IP (24 h) was 8.6 mg/dL, the K (24 h) was 4.3 meq/L and the PL (24 h) was 133.2 mg/dL. The RALB (24 h) was 2.6 g/dL, the TBIL (24 h) was 0.04 mg/dL and the TC (24 h) was 68.8 mg/dL. The TG (24 h) was 54 mg/dL, the TP (24 h) was 5.4 g/dL and the gamma-GTP (24 h) was 1.2 IU/L.
